Reference: ChEMBL document CHEMBL4138087, “Designing multi-targeted agents: An emerging anticancer drug discovery paradigm” (Eur J Med Chem, 2017)

Assays:
A-431 [1] = experiment: Potency index, ratio of temozolomide IC50 to compound IC50 for human A431 Cells; assay type: functional
A-431 [2] = experiment: Antiproliferative activity in human A431 Cells after 72 hrs by SRB assay; assay type: functional, cell-based; settings: A-431, 72 h
[3] = molecular target: Proto-oncogene tyrosine-protein kinase Src (Homo sapiens, UniProt P12931); experiment: Inhibition of Src kinase (unknown origin)
[4] = molecular target: Epidermal growth factor receptor (Homo sapiens, UniProt P00533); experiment: Inhibition of human A431 cells derived EGFR by ELISA
Sequence of Epidermal growth factor receptor (P00533 whole entry): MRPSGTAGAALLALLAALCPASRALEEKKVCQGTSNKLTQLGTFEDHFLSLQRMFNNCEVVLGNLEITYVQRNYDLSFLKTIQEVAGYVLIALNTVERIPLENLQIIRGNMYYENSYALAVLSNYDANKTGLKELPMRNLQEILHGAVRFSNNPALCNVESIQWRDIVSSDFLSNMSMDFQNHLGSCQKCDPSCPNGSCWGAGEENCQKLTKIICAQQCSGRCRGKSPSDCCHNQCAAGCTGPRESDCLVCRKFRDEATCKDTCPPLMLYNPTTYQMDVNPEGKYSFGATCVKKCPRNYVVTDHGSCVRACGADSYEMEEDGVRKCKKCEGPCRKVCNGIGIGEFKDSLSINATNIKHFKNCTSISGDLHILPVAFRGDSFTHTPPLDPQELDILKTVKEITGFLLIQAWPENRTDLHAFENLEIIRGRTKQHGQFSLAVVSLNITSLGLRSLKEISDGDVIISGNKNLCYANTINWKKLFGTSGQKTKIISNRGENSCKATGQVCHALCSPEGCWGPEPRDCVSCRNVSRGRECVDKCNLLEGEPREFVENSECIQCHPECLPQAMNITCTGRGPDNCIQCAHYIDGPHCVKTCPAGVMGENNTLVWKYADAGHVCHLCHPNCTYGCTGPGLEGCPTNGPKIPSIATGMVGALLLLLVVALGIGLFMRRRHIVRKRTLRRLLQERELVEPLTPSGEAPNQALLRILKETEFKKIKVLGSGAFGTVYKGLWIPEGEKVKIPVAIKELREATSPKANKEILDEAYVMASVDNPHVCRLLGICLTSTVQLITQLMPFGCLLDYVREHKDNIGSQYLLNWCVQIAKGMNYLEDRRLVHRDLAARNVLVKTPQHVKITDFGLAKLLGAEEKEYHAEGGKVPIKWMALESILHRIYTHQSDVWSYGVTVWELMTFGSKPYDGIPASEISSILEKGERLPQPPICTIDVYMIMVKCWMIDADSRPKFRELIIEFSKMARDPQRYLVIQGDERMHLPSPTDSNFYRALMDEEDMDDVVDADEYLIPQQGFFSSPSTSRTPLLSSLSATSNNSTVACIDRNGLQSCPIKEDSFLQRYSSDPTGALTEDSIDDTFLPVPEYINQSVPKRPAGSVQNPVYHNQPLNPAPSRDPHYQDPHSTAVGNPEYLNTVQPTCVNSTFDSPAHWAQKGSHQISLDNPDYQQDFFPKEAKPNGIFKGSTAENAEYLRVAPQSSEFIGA

Sequence of Proto-oncogene tyrosine-protein kinase Src (P12931 2-536 limits assumed): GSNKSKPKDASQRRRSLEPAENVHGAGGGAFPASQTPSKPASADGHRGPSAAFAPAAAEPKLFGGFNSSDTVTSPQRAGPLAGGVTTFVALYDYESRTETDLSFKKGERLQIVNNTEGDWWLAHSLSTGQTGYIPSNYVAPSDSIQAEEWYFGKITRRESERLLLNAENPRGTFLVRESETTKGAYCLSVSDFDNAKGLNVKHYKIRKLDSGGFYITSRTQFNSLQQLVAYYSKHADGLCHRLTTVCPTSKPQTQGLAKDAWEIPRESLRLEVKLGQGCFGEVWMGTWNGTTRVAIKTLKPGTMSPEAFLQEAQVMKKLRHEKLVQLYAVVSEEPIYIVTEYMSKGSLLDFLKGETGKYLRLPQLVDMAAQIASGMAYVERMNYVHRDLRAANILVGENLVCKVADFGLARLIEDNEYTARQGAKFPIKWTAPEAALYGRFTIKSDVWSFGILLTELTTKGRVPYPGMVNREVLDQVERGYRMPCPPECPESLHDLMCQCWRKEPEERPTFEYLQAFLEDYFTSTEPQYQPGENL

Row | Structure (SMILES) | Ratio IC50 (A-431 [1]) | IC50 (A-431 [2]) | IC50 [3] | IC50 [4]
1 | C/N=N/Nc1ccc2ncnc(Nc3cccc(C)c3)c2c1 | 10 | 36 µM | – | –
2 | Cc1cccc(Nc2ncnc3ccc(N)cc23)c1 | – | 59 µM | – | –
3 | CN(CCN(C)Cc1ccc(C(=O)Nc2ccc3ncnc(Nc4cccc(Cl)c4)c3c2)cc1)CCn1nc(-c2ccc(Cl)cc2)c2c(N)ncnc21 | – | – | 2.9 µM | 0.32 µM
